According to patent US5686458A, “Quinazoline deriviates for treating peptic ulcer” (Yuhan Corporation, priority 1992, dated 1997):
Structures can show the parent of a compound that is named as a salt.

Legend:
[1] = molecular target: T1, Proton Pump (H^+ /K^+ ATPase) (Oryctolagus cuniculus, UniProt P27112); assay: Inhibition of Proton Pump (H+/K+ ATPase) Activity, in vitro enzyme reaction (Experiment 1); assay type: biochemical, New Zealand white rabbit; conditions: for Effect ratio: IC50 of Omeprazole / IC50 of test compound; for IC50: K+-stimulated H+/K+ ATPase activity, rabbit gastric microsomes, pH 7.2, 37° C., 15 min prereaction, 30 min reaction, read-out: IC50 of test compound, inhibition (50%) of the proton pump activity
T1 construct: The microsomes thus obtained were used as an enzyme source of the in vitro enzyme reaction study of proton pump; from tissue; host or cells: rabbit stomach, mucosal scrapings, microsomes (180,000 g pellet)
Description: A New Zealand white rabbit was killed by blowing its head and the stomach was taken out. The contents of the stomach were removed and the stomach walls were washed with was saline. The inner wall of the stomach was scratched out with a slide glass and the cells thus obtained were homogenized in 0.25M sucrose buffer by means of a Teflon-glass homogenizer. The homogenous solution was centrifuged at 10,000 g for 10 minutes and the supernatant was further centrifuged at 20,000 g for 20 minutes. The supernatant thus obtained was centrifuged at an ultra-high speed of 180,000 g for 1 hour. The pellets precipitated were collected by discarding the supernatant and suspended in 50 mM Tris-HCl buffer having pH 7.2. The suspension was dialyzed twice with the same buffer(of 1,000 times volume) for 3 hours and stored into liquid nitrogen.
The above centrifugation and dialysis were carried out at 4° C. The microsomes thus obtained were used as an enzyme source of the in vitro enzyme reaction study of proton pump.
The inhibitory effects of proton pump activity by the compounds of the present invention were measured by the in vitro enzyme reaction study. The proton pump activity stimulated by Mg^++ was used as a negative comparative group, and the activity stimulated by Mg^++ and K^+ was used as a positive comparative group. The comparative compound was omeprazole.
Test tubes were divided into 4 groups: Group 1 as negative comparative group(n=3), Group 2 as positive comparative group(n=3), Group 3(n=5) to be administered with the compound of the present invention and Group 4(n=5) to be administered with the comparative compound. The inhibitory effects of proton pump activity of Groups 3 and 4 were measured by employing the compound prepared in Example 34 and omeprazole, respectively, each of which was dissolved in dimethylsulfoxide at 5 different concentrations.
To each of Groups 1, 2, 3 and 4, were added 0.1 ml of magnesium chloride(40 mM) dissolved in 50 mM Tris-HCl buffer (pH 7.2) and […] of the enzyme source prepared in Experiment 1-1. Then, 0.1 ml of potassium chloride(500 mM) and 0.1 ml of ammonium chloride(100 mM) dissolved in 50 mM Tris-HCl buffer(pH 7.2) were added to all groups except for Group 1.
0.1 ml of dimethylsulfoxide was added to each of Groups 1 and 2; and to Group 3 was added 0.01 ml of the solution in which the compound prepared in Example 34 was dissolved in dimethylsulfoxide at 5 different concentrations. To Group 4, 0.01 ml of the solution prepared by dissolving omprazole in dimethylsulfoxide at 5 different concentrations(37.6, 21.4, 12.2, 7.0 and 4.0 μM) was added. 50 mM Tris-HCl buffer was added thereto so as to make the total volume 0.4 ml.
Thereafter, the test tubes of each Group were placed at 37° C. for 15 minutes for the prereaction. 0.1 ml of ATP solution(33.3 mM), which was prepared by adding Tris-ATP 50 mM to Tris-HCl buffer having pH 7.2, was added until the reaction volume became 0.5 ml. The final concentrations of MgCl2, KCl, NH4 Cl, ATP, enzyme and Tris-HCl were 8 mM, 100 mM, 20 mM, 6.7 mM, 100μg/ml and 50 mM, respectively. After the reaction was carried out at 37° C. for 30 minutes, 25% cold trichloroacetic acid was added to terminate the enzyme reaction. The released inorganic phosphate was measured by an automatic analyzer(SBA 300, Gilford).
The difference between Group 1 and Group 2 represents the proton pump activity activated by K^+ only. The inhibition percentages of Groups 3 and 4 were calculated from Litchfield-wilcoxon equation[see J. Pharmacol. Exptl. Ther. 96, 99(1949)]. The concentrations of the test compounds which inhibit 50% of the proton pump activity are represented as IC50 in Table 1.

gastric secretion = assay: Inhibition of Gastric Secretion, pylorus-ligated rats (Experiment 2); assay type: in vivo, Sprague-Dawley rats
Description: In accordance with the method disclosed in Shay, H., et al., Gastroenterology 5, 43-61(1945), Experiment 2 was carried out.
Sprague-Dawley rats having a body weight of 170±10 g were divided into 3 groups(n=5) and deprived of food for 24 hours before the experiment with free access to water. Under ether anesthesia, the abdomen was incised, and the pylorus was ligated. As a comparative group, Group 1 was administered intraduodenally in a volume of 0.5 ml/200 g of 30% aqueous polyethylene glycol 400 solution. Groups 2 and 3 were administered intraduodenally with the compound of Example 34 and omeprazole, respectively, each of which was suspended in 30% aqueous polyethylene glycol 400 solution at a concentration of 20 mg/kg. After closing the abdominal cavity, the rats were placed for 5 hours and then killed by cervical dislocation. The stomach was extracted to obtain gastric juice.
The gastric juice was centrifuged at 1,000 g to remove precipitates. The amount and acidity of the gastric juice were measured. Relative volumes, relative acid concentrations and relative acid outputs of the test compounds were calculated from equations(I), (II) and (III) and the results are shown in Table 2.
(I) = the average amount of gastric juice of Group 1 - the
average amount of gastric juice of Group 2)/(the average
amount of gastric juice of Group 1 - the average amount
of gastric juice of Group 3)
Relative acid concentration
(II) = (the average acidity of Group 1 - the average
acidity of Group 2)/(the average acidity of Group 1 - the average
(III) = (the total amount of acid output of Group 1 - the
total amount of acid output of Group 2)/(the total amount of acid
output of Group 1 - the total amount of acid output of Group

[2] = relative to omeprazole (equation III), 20 mg/kg intraduodenally, pylorus-ligated rats, 5 hours

T1 sequence (P27112 whole entry): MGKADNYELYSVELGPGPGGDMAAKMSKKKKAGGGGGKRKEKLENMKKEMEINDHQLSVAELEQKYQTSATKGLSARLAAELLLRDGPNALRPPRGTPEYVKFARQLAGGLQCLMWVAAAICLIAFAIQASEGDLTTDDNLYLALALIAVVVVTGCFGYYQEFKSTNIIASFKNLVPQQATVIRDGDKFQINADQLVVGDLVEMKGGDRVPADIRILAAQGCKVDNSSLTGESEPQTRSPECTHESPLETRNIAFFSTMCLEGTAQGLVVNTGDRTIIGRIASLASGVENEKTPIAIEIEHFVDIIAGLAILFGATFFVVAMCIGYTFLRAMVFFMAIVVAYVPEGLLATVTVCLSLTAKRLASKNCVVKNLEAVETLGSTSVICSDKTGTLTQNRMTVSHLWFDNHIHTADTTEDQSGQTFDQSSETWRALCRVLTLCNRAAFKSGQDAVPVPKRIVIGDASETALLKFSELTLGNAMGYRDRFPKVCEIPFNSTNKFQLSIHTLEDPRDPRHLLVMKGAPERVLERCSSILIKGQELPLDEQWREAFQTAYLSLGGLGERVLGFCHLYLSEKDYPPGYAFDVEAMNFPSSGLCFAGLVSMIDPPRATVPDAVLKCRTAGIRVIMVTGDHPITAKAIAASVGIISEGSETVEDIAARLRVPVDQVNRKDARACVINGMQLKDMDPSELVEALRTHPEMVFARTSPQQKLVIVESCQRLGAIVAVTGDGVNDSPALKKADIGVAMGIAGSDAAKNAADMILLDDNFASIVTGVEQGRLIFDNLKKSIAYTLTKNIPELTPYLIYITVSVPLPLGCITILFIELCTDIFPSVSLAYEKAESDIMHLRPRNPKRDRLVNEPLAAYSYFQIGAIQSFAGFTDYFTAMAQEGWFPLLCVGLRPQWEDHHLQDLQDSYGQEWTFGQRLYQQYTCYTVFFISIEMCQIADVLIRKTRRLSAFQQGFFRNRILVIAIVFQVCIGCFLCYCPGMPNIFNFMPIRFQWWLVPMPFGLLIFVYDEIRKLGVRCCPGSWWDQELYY
T1 sequence (P18597 whole entry partner): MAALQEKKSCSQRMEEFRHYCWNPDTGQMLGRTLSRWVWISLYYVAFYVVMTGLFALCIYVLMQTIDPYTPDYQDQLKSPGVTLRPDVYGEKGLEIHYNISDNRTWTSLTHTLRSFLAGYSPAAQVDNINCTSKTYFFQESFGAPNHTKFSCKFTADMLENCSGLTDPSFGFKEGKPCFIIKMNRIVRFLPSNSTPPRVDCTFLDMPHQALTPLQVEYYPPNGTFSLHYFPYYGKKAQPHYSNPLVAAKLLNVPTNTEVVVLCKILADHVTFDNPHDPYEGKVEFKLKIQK

Compound	Effect ratio [1]	IC50 [1] [µM]	Relative Acid Output (gastric secretion; intraduodenal, 20 mg/kg, 5 h)	Relative Acid Output (gastric secretion; [2])
CCC1c2ccccc2CCN1c1nc(Nc2ccc(F)cc2)nc2c(OC)cccc12.Cl (stereo not drawn) [Example 45, 8-Methoxy-2-(4-Fluorophenyl-Amino)-4-(1-Ethyl-1,2,3,4-Tetrahydroisoquinoline-2-Yl) Quinazoline Hydrochloride]	0.46	8.9	-0.06	
CC1c2ccccc2CCN1c1nc(Nc2ccc(F)cc2)nc2ccccc12.Cl (stereo not drawn) [Example 25, 2-(4-Fluorophenylamino)-4-(1-Methyl-1,2,3,4-Tetrahydroisoquinoline-2-Yl)Quinazoline Hydrochloride]	5.88	2.7		0.50
COc1cccc2c(N3CCc4ccccc4C3C3CC3)nc(Nc3ccc(F)cc3C)nc12.Cl (stereo not drawn) [Example 47, 2-(4-Fluoro-2-Methylphenyl-Amino)-8-Methoxy-4-(1-cyclopropyl-1,2,3,4-Tetrahydroisoquinoline-2-Yl)Quinazoline Hydrochloride]	0.49	~25		0.33
COc1cccc2c(N3Cc4ccccc4CC3C)nc(Nc3ccc(F)cc3C)nc12.Cl (stereo not drawn) [Example 49, 2-(4-Fluoro-2-Methylphenyl-Amino)-8-Methoxy-4-(3-Methyl-1,2,3,4-Tetrahydroisoquinoline-2-Yl)Quinazoline Hydrochloride]	> 0.25	> 25		0.42

The remaining compounds from weak to strong by IC50 [1], led by results:

Effect ratio [1]	IC50 [1] [µM]	Compound	Relative Acid Output (gastric secretion; intraduodenal, 20 mg/kg, 5 h)	Relative Acid Output (gastric secretion; [2])
~ 0.60	~12.5	Cc1cc(F)ccc1Nc1nc(N2CCc3ccccc3C2C)c2cccc(OCCO)c2n1 (stereo not drawn) [Example 37, 8-(2-Hydroxyethyloxy)-2-(4-Fluoro-2-Methylphenylamino)-4-(1-Methyl-1,2,3,4-Tetrahydroisoquinoline-2-Yl)Quinazoline]		0.37
1.77	4.8	COc1cccc2c(N3CCc4cccc5c4C3CC5)nc(Nc3ccc(F)cc3C)nc12.Cl (stereo not drawn) [Example 59, 8-Methoxy-2-(4-Fluoro-2-Methyl-Phenylamino)-4-(1,8-Ethano-1,2,3,4-Tetrahydroisoquinoline-2-Yl)Quinazoline Hydrochloride]		0.83
0.70	4	CSCOc1cccc2c(N3CCc4ccccc4C3C)nc(Nc3ccc(F)cc3C)nc12 (stereo not drawn) [Example 39, 2-(4-Fluoro-2-Methylphenyl-Amino-8-(Methylthiomethyloxy)-4-(1-Methyl-1,2,3,4-Tetrahydroisoquinoline-2-Yl)Quinazoline Hydrochloride]		0.57
1.67	1.2	CCOc1cccc2c(N3CCc4ccccc4C3C)nc(Nc3ccc(F)cc3C)nc12.Cl (stereo not drawn) [Example 38, 2-(4-Fluoro-2-Methylphenyl-Amino)-8-Ethoxy-4-(1-Methyl-1,2,3,4-Tetrahydroisoquinoline-2-Yl)Quinazoline Hydrochloride]		0.83
